From patent US6469052B2, “Compounds for the photodecontamination of pathogens in blood” (Cerus Corporation, priority 1993, dated 2002) come the findings set out here.

Where two headings read alike, the source gives them in different places.

Data set [1] relates to Chinese hamster ovary (CHO) cells. In words: In vitro genotoxicity screen in CHO cells. The data set is classed as cell-based. The note with it: approximately 3 hours exposure in the dark, dilutions 1-1000 μg/ml. From the text:
The positive control was methylmethane sulfonate.
Coverslips were mounted with Permount.

The test system of data set [2] is Salmonella typhimurium TA97a. The source says:
(§1) The second property that is important in testing a compound for use in methods of the present invention is mutagenicity. The most widely used mutagen/carcinogen screening assay is the Ames test. This assay is described by D. M. Maron and B. N. Ames in Mutation Research 113: 173 ( 1983) and a specific screen is described in detail in Example 17, below. The Ames test utilizes several unique strains of Salmonella typhimurium that are histidine- dependent for growth and that lack the usual DNA repair enzymes. The frequency of normal mutations that render the bacteria independent of histidine (i.e., the frequency of spontaneous revertants) is low. The test allows one to evaluate the impact of a compound on this revertant frequency.
(§2) In this example the compounds of the present invention are tested for their dark mutagenicity using an Ames assay. The procedures used for the Salmonella mutagenicity test as described in detail by Maron and Ames were followed exactly. Maron, D. M. and B. N. Ames, Mutation Research 113: 173 ( 1983). A brief description for each procedure is given here. The tester strains TA97a, TA98, TA100, TA102, TA1537 and TA1538 were obtained from Dr. Ames. TA97a, TA98, TA1537 and TA1538 are frameshift tester strains. TA100 and TA102 are base-substitution tester strains. Upon receipt each strain was cultured under a variety of conditions to confirm the genotypes specific to the strains.
(§3) The first tests done with the strains were to determine the range of spontaneous reversion for each of the strains. With each mutagenicity experiment the spontaneous reversion of the tester strains to histidine independence was measured and expressed as the number of spontaneous revertants per plate. This served as the background controls.
(§4) For all experiments, the pre-incubation procedure was used. In this procedure one vial of each tester strain was thawed and 20 μL of this culture was added to 6 mL of Oxoid Nutrient Broth #2. This solution was allowed to shake for 10 hours at 37° C. In the pre-incubation procedure, 0.1 mL of this overnight culture was added to each of the required number of sterile test tubes. To half of the tubes 0.5 mL of a 10% S-9 solution containing Aroclor 1254 induced rat liver extract (Molecular Toxicology Inc., Annapolis, Md.), and MgCl2, KCl, glucose-6-phosphate, NADP, and sodium phosphate buffer (Sigma, St. Louis, Mo.) were added. To the other half of the tubes 0.5 mL of 0.2M sodium phospate buffer, pH 7.4, was used in place of the S-9 mixture (the -S9 samples). Finally 0.1 mL of the test solution containing either 0, 0.1, 0.5, 1, 5, 10, 50, 100, 250, or 500 μg/mL of the test compound was added. The 0.7 mL mixture was vortexed and then pre-incubated while shaking for 20 minutes at 37° C. After shaking, 2 mL of molten top agar supplemented with histidine and biotin were added to the 0.7 mL mixture and immediately poured onto a minimal glucose agar plate (volume of base agar was 20 mL). The top agar was allowed 30 minutes to solidify and then the plates were inverted and incubated for 44 hours at 37° C. After incubation the number of revertant colonies on each plate were counted. […] (“n” represents the number of replicates performed for each data point.)
(§5) Maron and Ames (1983) describe the conflicting views with regard to the statisical treatment of data generated from the test.

In data set [3] the test system is Salmonella typhimurium TA1537. In words: Ames assay (dark mutagenicity), strain TA1537.
Text: as §1, §2, §3, §4, §5
For orientation: The Ames test detects mutagens through reverse mutation in bacteria.

The subject of data set [4] is Salmonella typhimurium TA1538. In words: Ames assay (dark mutagenicity), strain TA1538.
Text: as §1, §2, §3, §4, §5

For data set [5], the system named is Duck Hepatitis B Virus (DHBV). In words: Inactivation of DHBV in platelet concentrate, PCR amplification readout. The note with it: 5J/CM^2 UVA. The method, then:
This example describes the protocol for inactivation of Duck Hepatitis B Virus (DHBV), a model for Hepatitis B Virus, using compounds of the present invention. DHBV in duck yolk was added to platelet concentrate (PC) to a final concentration of 2×10^7 particles per mL and mixed by gentle rocking for ≧15 min. […] Samples, including controls without added psoralen, were irradiated with 5J/CM^2 UVA, with mixing at 1 J/cm^2 increments. After irradiation, leukocytes and platelets were separated from virus by centrifugation. […] Samples were extracted with phenol-chloroform and chloroform, followed by ethanol precipitation. […] PCR amplicons were generated using primers pairs DCD03/DCD05 (127 bp), DCD03/DCD06 (327 bp) and DCD03/DCD07 (1072 bp). PCR was performed in a standard PCR buffer containing 0.2 mM each deoxyribonucleoside 5′-triphosphates (dATP, dGTP, dCTP, and dTTP), […], and 0.5 units Taq polymerase per […]. 30 cycles of amplification were performed with the following thermal profile: 95° C. 30 sec, 60° C. 30 sec, 72° C. 1 min. The amplification was followed by a 7 min incubation at 72° C. to yield full length products. […] was added at an amount of […] in order to detect and quantify the resulting products. Products were separated by electrophoresis on denaturing polyacrylamide slab gels and counted. The absence of signal in a given reaction was taken to indicate effective inactivation of DHBV.

In data set [6] the test system is Salmonella typhimurium TA102. In words: Ames assay (dark mutagenicity), strain TA102.
Text: as §1, §2, §3, §4, §5

Data set [7] relates to GMP-140 (p-selectin) on platelets. In words: Platelet function: GMP-140 expression (flow cytometry, CD62). Format: cell-based, human. The note with it: 100 μM compound, 5 Joules/cm^2, 5 days storage. The method, then: (§6) To measure the effects of the present compounds and methods of decontamination on platelet function using these four indicators, four samples were prepared for each compound tested, two control samples and two containing compound. Three units of human platelets were obtained from the Sacramento Blood Center, Sacramento, Calif. These were each transferred under sterile conditions to 50 ml centrifuge tubes, then aliquots of each unit were transferred into a second set of 50 ml sterile centrifuge tubes. To each centrifuge tube containing platelet concentrate (PC), an aliquot of compound stock was added to reach a final concentration of 100 μM of compound. […] The samples were pipetted gently up and down to mix. Then aliquots (either 3 ml or 8 ml) of each sample was transferred to two sterile Teflon™ Medi-bags™ (American Fluoroseal Co., Silver Springs, Md.) (presently owned by The West Company, Lionville, Pa.). Samples were treated in one of two different sized bags, having either 3 ml or 8 ml capacity. […] For each compound tested, two control samples without compound were prepared by again removing aliquots of platelet concentrate (17 ml if using an 8 ml bag, […] if using a 3 ml bag) from the same one of the first set of 50 ml centrifuge tubes from which the compound sample was drawn, and dividing into Medibags, as before. One of each pair of Medibags containing a compound, and one of each pair of control Medibags, were illuminated for 5 Joules/cm^2 on the device described in Example 1, above. Then all experimental and control Medibags were placed on a platelet shaker for storage for 5 days. The same experiments were repeated several times to obtain more statistically meaningful data, as represented by “n”, the number of data points represented, in the graphs of FIGS. 21-24, discussed below.
(A flow cytometer gives signals particle by particle.)

For a further data set, the system named is mouse reticulocytes. The note with it: increased dose levels, male Balb/c mice, tail vein. As for the experimental part:
Male Balb/c mice were then injected with 0.1 ml of a compound solution via the tail vein. At least 3 mice were injected per dose level. Saline only was used as a negative control. For a positive control, cyclophosphamide (cycloPP) was administered at a dose of 30 mg/kg. In the experimental group, the injections were repeated once per day for four days. In the positive control group, the sample was administered only once, on day three. On day 5, several microliters of blood were withdrawn from each subject and smeared on a glass slide. Cells were fixed in absolute methanol and stored in a slide rack.
For analysis, cells were stained with acridine orange and visualized under a fluorescence microscope by counting: (i) the number of reticulocytes per 5000 erythrocytes; and (ii) the number of micronucleated reticulocytes per 1000 reticulocytes. Reticulocytes were distinguished by their red fluorescence due to the presence of RNA. Micronuclei were distinguished by their green fluorescence due to the presence of DNA. The percentage of reticulocytes (%PCE) was then calculated. A decrease in the frequency of […] in the percentage of reticulocytes, is an indication of bone marrow toxicity. The percentage of reticulocytes with micronuclei (%PCE with MN) was also calculated. An increase in %PCE with MN is a measure of clastogenicity.
After initial results were determined, the experiment was repeated using increased dose levels, until: (i) Micronucleus formation was seen; or (ii) Bone marrow toxicity was observed; or (ii) The lethal dose was reached; or (iv) A dose of 5 g/kg was administered.

For the next data set, the system named is human platelets. The note with it: 100 μM compound, 5 Joules/cm^2, 5 days storage. As for the experimental part: as §6
A Sysmex cell counter was used to measure platelet count in the platelet samples. Samples were diluted 1:3 in blood bank saline.

Data set [8] has as its system Salmonella typhimurium TA98. In words: Ames assay (dark mutagenicity), strain TA98.
Text: as §1, §2, §3, §4, §5

Data set [9] has as its system Salmonella tester strains TA97a, TA98, TA100, TA102, TA1537 and TA1538. In words: Ames assay, overall assessment over the tester strains.
Text: as §1, §2, §3
For all experiments, the pre-incubation procedure was used. In this procedure one vial of each tester strain was thawed and 20 μL of this culture was added to 6 mL of Oxoid Nutrient Broth #2. This solution was allowed to shake for 10 hours at 37° C. In the pre-incubation procedure, 0.1 mL of this overnight culture was added to each of the required number of sterile test tubes. To half of the tubes 0.5 mL of a 10% S-9 solution containing Aroclor 1254 induced rat liver extract (Molecular Toxicology Inc., Annapolis, Md.), and MgCl2, KCl, glucose-6-phosphate, NADP, and sodium phosphate buffer (Sigma, St. Louis, Mo.) were added. To the other half of the tubes 0.5 mL of 0.2M sodium phospate buffer, pH 7.4, was used in place of the S-9 mixture (the -S9 samples). Finally 0.1 mL of the test solution containing either 0, 0.1, 0.5, 1, 5, 10, 50, 100, 250, or 500 μg/mL of the test compound was added. […] After incubation the number of revertant colonies on each plate were counted. […]

Turning to `Cc1oc2c(C)c3oc(=O)cc(C)c3cc2c1CN` [AMT, 4′-Aminomethyl-4,5′,8-trimethylpsoralen, reference compound], the “genotoxic (toxic) concentration” value in data set [1] stood at 30 µg/mL. The revertants per plate in [2] (TA97a −S9, 0.1 μg/plate) turned out to be 14; in data set [2] (TA97a −S9, 0.5 μg/plate) it was 9; in [2] (TA97a −S9, 1 μg/plate), 54; in [2] (TA97a −S9, 5 μg/plate), 73; in data set [3] (TA1537 +S9, 100 μg/plate) it was 500; in [4] (TA1538 −S9, 0.1 μg/plate) it was 3. Also, the revertants per plate in data set [4] (TA1538 −S9, 0.5 μg/plate) is reported as 4; in data set [4] (TA1538 −S9, 1 μg/plate), 4; in data set [4] (TA1538 −S9, 5 μg/plate), 13; in data set [4] (TA1538 −S9, 10 μg/plate), 14; in data set [6] (TA102 +S9, 0.1 μg/plate), −20; in data set [6] (TA102 +S9, 0.5 μg/plate) it was 5. Further, the revertants per plate in [6] (TA102 +S9, 1 μg/plate) was −17; in data set [6] (TA102 +S9, 5 μg/plate), 51. The “dose at which frameshift mutagenicity was shown” value in data set [3] (TA1537) is 5 μg/plate; in data set [4] (TA1538), 1 μg/plate. Further, the “PCR amplification of the 1072 bp DHBV amplicon” value is listed as “a signal could be detected” in [5]; “inhibited PCR amplification” in [5] (70 and 100 mM levels).

For the molecule `Cc1cc(=O)oc2c(C)c3oc(CNCCCCN)c(C)c3cc12` [Compound 17, 5′-(6-amino-2-aza)hexyl-4,4′,8-trimethylpsoralen], the “GMP-140 expression: sample treated with light and psoralen (PCD) versus day 5 untreated control (D5)” value in data set [7] is given as “little or no difference”. Further, the “outcome of dose escalation in the micronucleus assay” value with mouse reticulocytes is listed as “the acutely lethal dose was reached before there were any signs of bone marrow toxicity or micronucleus formation”. Also, the “platelet count compared with samples treated with light alone” value with human platelets is on record as “higher platelet count than samples treated with light alone”.

`Cc1cc(=O)oc2c(C)c3oc(COCCN)c(C)c3cc12` [Compound 18, 5′-(4-amino-2-oxa)butyl-4,4′,8-trimethylpsoralen]: the “GMP-140 expression: sample treated with light and psoralen (PCD) versus day 5 untreated control (D5)” value in [7] is on record as “notable increase above the control”. The “outcome of dose escalation in the micronucleus assay” value in the data set with mouse reticulocytes is “the acutely lethal dose was reached before there were any signs of bone marrow toxicity or micronucleus formation”. The revertants per plate in data set [8] (TA98 +S9, 10 μg/plate) was 8; in data set [8] (TA98 +S9, 50 μg/plate), 6; in data set [8] (TA98 +S9, 100 μg/plate), 26; in [8] (TA98 +S9, 200 μg/plate), 42; in data set [8] (TA98 −S9, 10 μg/plate) it was 21; in data set [8] (TA98 −S9, 50 μg/plate) it was 303. Besides, the revertants per plate in data set [8] (TA98 −S9, 100 μg/plate) is recorded as 390; in [8] (TA98 −S9, 200 μg/plate), 225; in data set [3] (TA1537 +S9, 10 μg/plate) it was 8; in data set [3] (TA1537 +S9, 50 μg/plate) it was 6; in [3] (TA1537 +S9, 100 μg/plate), 26; in [3] (TA1537 +S9, 200 μg/plate) it was 42. Further, the revertants per plate in [3] (TA1537 −S9, 10 μg/plate) was 21; in [3] (TA1537 −S9, 50 μg/plate) it was 303; in data set [3] (TA1537 −S9, 100 μg/plate), 390; in [3] (TA1537 −S9, 200 μg/plate), 225. Further, the “platelet count compared with samples treated with light alone” value in the data set on human platelets was “higher platelet count than samples treated with light alone”. In addition, the “mutagenic response compared with AMT” value in data set [9] (in the absence of S9) is listed as “higher in the absence of S9, but still was significantly below that of AMT”. Also, the mutagenic response entry in [9] (in the presence of S9 in strains TA 9o and TA 1537) is “only a weak response at high concentrations”.
